Literature values in patent US20040197891A1, “Removal of plasmin(ogen) from protein solutions” (priority 2001, published 2004).
Where two headings read alike, the source gives them in different places.

Key:
[1] = tested on: fibrinolytic activity of plasma
[2] = plasma that has been heparinized oral blood

SMILES | antifibrinolytic activity compared with EACA (plasmin(ogen)) | inhibition (anti-fibrinolytic activity) [1, 2] [%] | inhibition (anti-fibrinolytic activity) ([1]; urokinase-stimulated plasma) [%] | antifibrinolytic potency (plasmin(ogen))
N=C(N)c1ccc(N)cc1 [PAMBA, p-amino benzamidine] | about three |  |  | 
NCCCCCC(=O)O [ε-amino-caproic acid, ε-amino caproic acid] |  | 65 | 98 | 
NCCCC[C@H](N)C(=O)O [lysine] |  |  |  | very low
NC[C@H]1CC[C@H](C(=O)O)CC1 [tranexamic acid] |  | 39 | 91 | 
